Columns and labels:
[1] = system: [FXa-Hep-ATIII] complex; assay: Blood coagulation factor in vitro enzymatic assay (FXa/ATIII/Hep, chromogenic peptide hydrolysis); format: biochemical, human; conditions: for in vitro potency as Hep antidote (recovery of FXa activity), rank order: 1 μM of each binder, Hep 0.1 IU/mL, FIG. 2B; for activity as Hep antidote in the enzymatic assay compared with ciraparantag: percent hydrolysis at 30 min, FIG. 2C
Protocol: Blood coagulation factor in vitro enzymatic assays: Recombinant antithrombin Ill and coagulation Factor Xa were obtained from the Berichrom Heparin test, supplied by SIEMENS. Following the indications of the test kit, stock solutions were prepared as follows: Human antithrombin III (1 IU/mL), Factor Xa reagent (0.4 μg/mL, human plasma fraction with the additives Tris, sodium chloride and EDTA) and a chromogenic substrate specific for factor Xa (4 mM of Z-D-Leu-Gly-ArgANBA-methyl amide). On the other hand, 4-nitroaniline (Sigma Aldrich) was added to the substrate solution at a concentration of 1.6 mM and was used as internal standard to quantify the hydrolysis of the chromogenic substrate. Heparin (sodium salt from porcine intestinal mucosa, polydisperse, from 6000 to 30000 Daltons) was purchased from Sigma-Aldrich. All compounds were dissolved in mili-Q water at the desired stock concentrations prior to start the assays and kept at 4° C. Various concentrations of the ligand, heparin (0.1 IU/mL), human antithrombin Ill solution (3.5 μL) and Factor Xa reagent solution (35 μL) were added in order to an Eppendorf and brought to a total volume of 145 μL. Then, 20 μL of Reagent Substrate solution was added to start the experiment and the mixture was vigorously shaken at 25° C. 20 μL samples were taken at minutes 5/10/15/20/30/50/80/120, diluted with 40 μL of acetic acid (20% v/v), and injected in the analytical HPLC. The gradient ranged from 5% ACN (0.1% formic acid) in water (0.1% formic acid) to 100% ACN in 24 minutes using a 15×4.6 mm KROMAPHASE C18 5.0 μm column (retention time of cleaved chromophore 9.1 min, retention time of chromogenic substrate 13.9 min, retention time of 4-nitroaniline 15.4 min). Concentrations of reagents have been adjusted compared with previous studies with the intention to slow down the total exhaustion of peptide substrate. In this way the activity can be more carefully modulated and any change is easier to detect. FXa/ATIII activity was represented as percent of hydrolysis, which was calculated from the normalized area of cleaved peptide at 405 nm at each corresponding time point. Experiment carried out in absence of heparin was considered as maximum of activity while experiment with heparin and no ligand was considered as negative control (maximum inhibition of FXa by heparin). Concentration of heparin was selected for the measurement to render a significant inhibition within experimental time, while allowing the reaction to proceed.
In vitro inhibition of heparin activity. The effect of the binders as Hep antidotes can be tested in vitro using an enzymatic reaction related to the blood coagulation process (FIG. 2A). This test employs human recombinant coagulation factor Xa (FXa) and antithrombin III (ATIII), with the synthetic peptide Z-D-LGR-N(Me)ANBA as the substrate of the FXa protease to mimic the prothrombin to thrombin transformation that triggers blood coagulation. Heparin forms a ternary complex with ATIII and FXa with a low hydrolytic activity, as a model for the anticoagulation effect of Hep. The addition of an efficient Hep binder dissociates the [FXa-Hep-ATIII] complex, thus releasing the active form of FXa that cleaves the substrate. The peptide hydrolysis can be readily monitored by analytical HPLC thanks to the ANBA chromophore, as an accurate measurement of the reaction kinetics.
In parallel experiments, the addition of equal concentration (1 μM) of each of the binders produces a different level of recovery of the FXa activity. […] Actually, several selected molecules derived from spermine were tested in the enzymatic assay (FIG. 2C) most of them showing activity in the reversal of the heparin action.

[2] = system: freshly extracted mouse blood with Hep; assay: Ex vivo blood coagulation assay; conditions: for reversal of anticoagulant effect of Hep in mouse blood (clot formation): Hep 130 μM, various ligand concentrations, 15 minutes, FIG. 3A
Protocol: Ex vivo blood coagulation assays: Freshly collected mouse blood was collected and directly used without further treatment. 300 μL aliquots were prepared. To them, Hep (130 μM), and various concentration of ligand (3AC or 3FF) were added. The samples of the different conditions were added to an Eppendorf tube and a picture was taken after 15 minutes. The clot formation was confirmed by turning around the Eppendorf vials.
Reversing the anticoagulant activity of heparin: In order to check the efficacy of the antidotes in a more representative environment, 3FF and 3AC were tested in real blood coagulation assays. Thus, it has been monitored the coagulation of freshly extracted mouse blood in the absence or presence of Hep, and upon addition of different concentrations of 3FF and 3AC.

[3] = Surface Plasmon Resonance (SPR) on heparin-functionalized chips; format: binding
Protocol: Surface Plasmon Resonance (SPR): Affinity experiments between inhibitors and heparin were performed on an Open SPR™(Nicoya). All measurements were performed at 25° C. using a working buffer of 25 mM Tris at pH 7.5. Biotin-loaded sensor chips (NICOYA) were further functionalized with streptavidine (50 μg/mL) and later with biotin-heparin (50 μg/mL). Binding experiments to heparin were performed by injecting inhibitors at desired concentrations and at a rate of 40 μL/min. Between binding assays, the surface was regenerated by exposure to an injection of 10 mM HCl. Fitting has been performed by Trace Drawer software using a ‘one-to-one two-state algorithm’, which considers a 1:1 binding with a further equilibrium like a conformational change. Results obtained from three independent experiments at three different concentrations of the ligands were fit globally to render the corresponding on/off rate constants and the apparent dissociation constants (KD^app Table 1, as shown below).
Binding of the spermine derivatives to the heparin target. Surface Plasmon Resonance (SPR) on heparin-functionalized chips were used to determine the apparent dissociation constant of selected molecules (KD^app, Table 1).

[4] = system: heparinized mice; assay: In vivo tail transection assay with mice; set-up: species or system mouse; conditions: for reversal of Hep activity in vivo (bleeding of heparinized mice): Hep 100 IU/kg i.v. followed by 2.2 or 4.4 mg/kg, blood collected 10 minutes, FIG. 3B; for blood loss of heparinized mice at the highest doses: Hep 100 IU/kg, highest dose (4.4 mg/kg)
Protocol: In vivo tail transection assays with mice: Eight-weeks old CD-1 male mice (Janvier-Labs) were used for the study. Animals were housed under a 12 h light: dark cycle in an environmentally controlled room and free access to water and food. Mice were randomly assigned into 6 groups (n=6 for each group). Animals were anesthetized by i.p. injections of 0.465 mg/kg xylazine (Rompun, Bayer DVM) and 1.395 mg/kg ketamine (Imalgene 100, Merial Laboratorios). After anesthetizing them, different solutions were injected intravenously according to the assigned group: Saline group (only saline was given), Hep group (Hep injection, 100 IU/kg), 3AC (two groups, Hep injection followed by injection of 3AC at 2.2 mg/kg or 4.4 mg/kg) and 3FF (two groups, Hep injection followed by injection of 3FF at 2.2 mg/kg or 4.4 mg/kg). Two additional control groups (n=3) were included in which only the ligand (3AC or 3FF) at the highest dose (4.4 mg/kg) was injected. At 5 minutes after injections, tails were transected at 5 mm from the tip and immediately inserted in a tube containing 1 ml of saline buffer immersed in a water bath at 37° C., where the blood draining out of the wound was collected for 10 minutes. The blood draining out from the wound was collected in each tube. Tails were let bleed during 10 minutes. The total blood volume in each tube was quantified by spectrophotometry (absorbance at 414 nm) from a standard curve that was constructed with known volumes of blood hemoglobin concentration and corresponding absorbance value. Statistical analysis of the data was done with Kaleida Graph 4.5.4 using ANOVA.
3FF and 3AC were tested in an in vivo coagulation model. It was thus performed the tail transection assay with mice after consecutive injection of Hep, and the drugs at two different doses each (FIG. 3B). The control groups injecting saline or Hep, and those corresponding to just the drugs were also included.

Oc1ccccc1CNCCCNCCCCNCCCNCc1c(O)ccc2ccccc12 [Compound 3AF, 1-(16-(2-hydroxyphenyl)-2,6,11,15-tetraazahexadecyl)naphthalen-2-ol]
in vitro potency as Hep antidote (recovery of FXa activity), rank order [1]: 3AF (open circles)<3FF

Oc1ccccc1CNCCCNCCCCNCCCNCc1ccc2c(c1)Cc1ccccc1-2 [Compound 3AC, 2-(16-(9H-fluoren-2-yl)-2,6,11,15-tetraazahexadecyl)phenol]
reversal of anticoagulant effect of Hep in mouse blood (clot formation) [2]: able to revert the anticoagulant effect of Hep in a dose-response manner
ex vivo antidote quality, 3AC compared with 3FF ([2]; equal doses, qualitative): better antidote than 3FF
in vitro potency as Hep antidote (recovery of FXa activity), rank order [1]: <3AC
activity as Hep antidote in the enzymatic assay compared with ciraparantag [1]: even more potent
affinity to Hep compared with ciraparantag [3]: higher affinity to Hep than ciraparantag
reversal of Hep activity in vivo (bleeding of heparinized mice) [4]: efficient antidotes of Hep also in vivo, strongly reducing the bleeding of heparinized mice
blood loss of heparinized mice at the highest doses [4]: reversed to values very similar to those of the control group injected with saline
in vivo reversal potency, 3AC compared with 3FF ([4]; tail transection, mice): more potent reversal agent than 3FF

Oc1ccccc1CNCCCNCCCCNCCCNCc1cccc2ccccc12 [Compound 3AL, 2-(16-(naphthalen-1-yl)-2,6,11,15-tetraazahexadecyl)phenol, reference compound]
in vitro potency as Hep antidote (recovery of FXa activity), rank order [1]: 3AL (X symbols)≤3AG

Oc1ccc2ccccc2c1CNCCCNCCCCNCCCNCc1c(O)ccc2ccccc12 [Compound 3FF, 1,1′-(2,6,11,15-tetraazahexadecane-1,16-diyl)bis(naphthalen-2-ol)]
reversal of anticoagulant effect of Hep in mouse blood (clot formation) [2]: able to revert the anticoagulant effect of Hep in a dose-response manner
in vitro potency as Hep antidote (recovery of FXa activity), rank order [1]: 3FF (inverted solid triangles)<3AC
activity as Hep antidote in the enzymatic assay compared with ciraparantag [1]: comparable with the drug ciraparantag
affinity to Hep compared with ciraparantag [3]: higher affinity to Hep than ciraparantag
reversal of Hep activity in vivo (bleeding of heparinized mice) [4]: efficient antidotes of Hep also in vivo, strongly reducing the bleeding of heparinized mice
blood loss of heparinized mice at the highest doses [4]: reversed to values very similar to those of the control group injected with saline

Oc1ccccc1CNCCCNCCCCNCCCNCc1ccc2ccccc2c1O [Compound 3AG, 2-(16-(2-hydroxyphenyl)-2,6,11,15-tetraazahexadecyl)naphthalen-1-ol]
in vitro potency as Hep antidote (recovery of FXa activity), rank order [1]: 3AG (rhombuses)<3AF
